These results are taken from US9850283B2, “Macrocyclic inhibitors of the PD-1/PD-L1 and CD80(B7-1)/PD-L1 protein/protein interactions” (BRISTOL-MYERS SQUIBB COMPANY, priority 2013, dated 2017).

pIC50: −log10 of the molar value. Positions of bridges follow the written chain, without caps; N, C: chain ends. Non-standard residues stand in square brackets, D forms with d. Residues, ends and D or L forms follow the SMILES beside them. ξ: configuration not given here. Phe(4-Br) = N[C@@H](Cc1ccc(Br)cc1)C(=O)O; Phe(4-Me) = Cc1ccc(C[C@H](N)C(=O)O)cc1; ξPro(4R-OH) = O=C(O)C1C[C@@H](O)CN1; 4Pal = N[C@@H](Cc1ccncc1)C(=O)O; NMeNle = CCCC[C@H](NC)C(=O)O; NMeA = CN[C@@H](C)C(=O)O; Nle = CCCC[C@H](N)C(=O)O; ξPip = O=C(O)C1CCCCN1; ξP = O=C(O)C1CCCN1; Sar = CNCC(=O)O

The target of the first test is T1, Human PD-L1/PD-1 (Homo sapiens, UniProt Q9NZQ7).
T1 construct: made in house; host or cells: HEK293T
T1 sequence (Q9NZQ7 with tags, fused parts or gaps): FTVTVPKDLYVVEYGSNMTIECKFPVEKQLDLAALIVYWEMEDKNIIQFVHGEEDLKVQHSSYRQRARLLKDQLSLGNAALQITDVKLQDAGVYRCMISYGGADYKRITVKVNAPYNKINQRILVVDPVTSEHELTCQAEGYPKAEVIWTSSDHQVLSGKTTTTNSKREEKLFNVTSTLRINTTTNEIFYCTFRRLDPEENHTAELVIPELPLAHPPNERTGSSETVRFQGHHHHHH
Kind of test: HTRF PD-1-Ig/PD-L1-His binding assay (human PD-L1). To be noted: Table 6; read-out: HTRF Human PD-L1/PD-1 Binding Assay IC50. The text has this: The ability of the macrocyclic peptides of the present disclosure to bind to PD-L1 was investigated using a PD-1/PD-L1 Homogenous Time-Resolved Fluorescence (HTRF) binding assay.
Homogenous Time-Resolved Fluorescence (HTRF) Assays of Binding of Soluble PD-1 to Soluble PD-L1. Soluble PD-1 and soluble PD-L1 refers to proteins with carboxyl-end truncations that remove the transmembrane-spanning regions and are fused to heterologous sequences, specifically the Fc portion of the human immunoglobuling G sequence (Ig) or the hexahistidine epitope tag (His). All binding studies were performed in an HTRF assay buffer consisting of dPBS supplemented with 0.1% (w/v) bovine serum albumin and 0.05% (v/v) Tween-20. […] PD-L1 fusion proteins from either human, cynomologous macaques, or mouse were used. HTRF detection was achieved using europium crypate-labeled anti-Ig monoclonal antibody (1 nM final) and allophycocyanin (APC) labeled anti-His monoclonal antibody (20 nM final). Antibodies were diluted in HTRF detection buffer and 5 μl was dispensed on top of binding reaction.
In general terms: In TR-FRET formats the signal depends on donor and acceptor labels being close together.
In the case of `CCCC[C@H]1C(=O)N(C)[C@@H](CCCC)C(=O)N[C@@H](CC(C)C)C(=O)N[C@H](C(=O)NCC(N)=O)CSCC(=O)N[C@@H](Cc2ccccc2)C(=O)N(C)[C@@H](C)C(=O)N[C@@H](CC(N)=O)C(=O)N2CCC[C@H]2C(=O)N[C@@H](Cc2cnc[nH]2)C(=O)N[C@@H](CCCNC(=N)N)C(=O)N[C@@H](CO)C(=O)N[C@@H](Cc2c[nH]c3ccccc23)C(=O)N[C@@H](CCCNC(=N)N)C(=O)N[C@@H](Cc2c[nH]c3ccccc23)C(=O)N1C` [Compound No. 3] ({CH2CO}-F[NMeA]NPHRSWRW[NMeNle][NMeNle]LCG-NH2; thioether N-14), the pIC50 was 7.89.

Still in this test, the particulars now being: Table 8, Compound No. 1 variant macrocyclic peptides; read-out: HTRF Human PD-L1/PD-1 Binding Assay IC50.
For `CCCC[C@H]1C(=O)N(C)[C@@H](CCCC)C(=O)N[C@@H](CCCNC(=N)N)C(=O)N[C@H](C(=O)NCC(N)=O)CSCC(=O)N[C@@H](Cc2ccccc2)C(=O)N(C)[C@@H](C)C(=O)N[C@@H](C)C(=O)N2CCCC2C(=O)N[C@@H](Cc2cnc[nH]2)C(=O)N[C@@H](CC(C)C)C(=O)N(C)CC(=O)N[C@@H](Cc2c[nH]c3ccccc23)C(=O)N[C@@H](CO)C(=O)N[C@@H](Cc2c[nH]c3ccccc23)C(=O)N1C` (stereo partly drawn) [Compound No. 8] ({CH2CO}-F[NMeA]A[ξP]HL[Sar]WSW[NMeNle][NMeNle]RCG-NH2; thioether N-14), the pIC50 was 7.51.
On to `CCCC[C@H]1C(=O)N(C)[C@@H](CCCC)C(=O)N[C@@H](CCCNC(=N)N)C(=O)N[C@H](C(=O)NCC(N)=O)CSCC(=O)N[C@@H](Cc2ccccc2)C(=O)N(C)[C@@H](C)C(=O)N[C@@H](CC(N)=O)C(=O)N2CCCC2C(=O)N[C@@H](Cc2cnc[nH]2)C(=O)N[C@@H](C)C(=O)N(C)CC(=O)N[C@@H](Cc2c[nH]c3ccccc23)C(=O)N[C@@H](CO)C(=O)N[C@@H](Cc2c[nH]c3ccccc23)C(=O)N1C` (stereo partly drawn) [Compound No. 11] ({CH2CO}-F[NMeA]N[ξP]HA[Sar]WSW[NMeNle][NMeNle]RCG-NH2; thioether N-14), for which the pIC50 is 7.51.
For the molecule `CCCC[C@H]1C(=O)N(C)[C@@H](CCCC)C(=O)N[C@@H](CCCNC(=N)N)C(=O)N[C@H](C(=O)NCC(N)=O)CSCC(=O)N[C@@H](Cc2ccccc2)C(=O)N(C)[C@@H](C)C(=O)N[C@@H](CC(N)=O)C(=O)N2CCCC2C(=O)N[C@@H](Cc2cnc[nH]2)C(=O)N[C@@H](CC(C)C)C(=O)N(C)CC(=O)N[C@@H](C)C(=O)N[C@@H](CO)C(=O)N[C@@H](Cc2c[nH]c3ccccc23)C(=O)N1C` (stereo partly drawn) [Compound No. 15] ({CH2CO}-F[NMeA]N[ξP]HL[Sar]ASW[NMeNle][NMeNle]RCG-NH2; thioether N-14), the pIC50 was under 4.52.
Consider `CCCC[C@@H]1NC(=O)[C@H](Cc2c[nH]c3ccccc23)NC(=O)[C@H](CO)NC(=O)[C@H](Cc2c[nH]c3ccccc23)NC(=O)CN(C)C(=O)[C@H](CC(C)C)NC(=O)[C@H](Cc2cnc[nH]2)NC(=O)C2CCCN2C(=O)[C@H](CC(N)=O)NC(=O)[C@H](C)N(C)C(=O)[C@H](Cc2ccccc2)NC(=O)CSC[C@@H](C(=O)NCC(N)=O)NC(=O)[C@H](CCCNC(=N)N)NC(=O)[C@H](CCCC)N(C)C1=O` (stereo partly drawn) [Compound No. 18] ({CH2CO}-F[NMeA]N[ξP]HL[Sar]WSW[Nle][NMeNle]RCG-NH2; thioether N-14), for which the pIC50 was 7.44.
As to `CCCC[C@@H]1NC(=O)[C@H](CCCC)N(C)C(=O)[C@H](Cc2c[nH]c3ccccc23)NC(=O)[C@H](CO)NC(=O)[C@H](Cc2c[nH]c3ccccc23)NC(=O)CN(C)C(=O)[C@H](CC(C)C)NC(=O)[C@H](Cc2cnc[nH]2)NC(=O)C2CCCN2C(=O)[C@H](CC(N)=O)NC(=O)[C@H](C)N(C)C(=O)[C@H](Cc2ccccc2)NC(=O)CSC[C@@H](C(=O)NCC(N)=O)NC(=O)[C@H](CCCNC(=N)N)NC1=O` (stereo partly drawn) [Compound No. 20] ({CH2CO}-F[NMeA]N[ξP]HL[Sar]WSW[NMeNle][Nle]RCG-NH2; thioether N-14), the pIC50 is 5.07.
Still for that read-out and setting: under `CCCC[C@H]1C(=O)N(C)[C@@H](C)C(=O)N[C@@H](CCCNC(=N)N)C(=O)N[C@H](C(=O)NCC(N)=O)CSCC(=O)N[C@@H](Cc2ccccc2)C(=O)N(C)[C@@H](C)C(=O)N[C@@H](CC(N)=O)C(=O)N2CCCC2C(=O)N[C@@H](Cc2cnc[nH]2)C(=O)N[C@@H](CC(C)C)C(=O)N(C)CC(=O)N[C@@H](Cc2c[nH]c3ccccc23)C(=O)N[C@@H](CO)C(=O)N[C@@H](Cc2c[nH]c3ccccc23)C(=O)N1C` (stereo partly drawn) [Compound No. 21] ({CH2CO}-F[NMeA]N[ξP]HL[Sar]WSW[NMeNle][NMeA]RCG-NH2; thioether N-14) stands 7.68; under `CCCC[C@H]1C(=O)N(C)[C@@H](CCCC)C(=O)N[C@@H](CCCNC(=N)N)C(=O)N[C@H](C(N)=O)CSCC(=O)N[C@@H](Cc2ccccc2)C(=O)N(C)[C@@H](C)C(=O)N[C@@H](CC(N)=O)C(=O)N2CCCC2C(=O)N[C@@H](Cc2cnc[nH]2)C(=O)N[C@@H](CC(C)C)C(=O)N(C)CC(=O)N[C@@H](Cc2c[nH]c3ccccc23)C(=O)N[C@@H](CO)C(=O)N[C@@H](Cc2c[nH]c3ccccc23)C(=O)N1C` (stereo partly drawn) [Compound No. 24] ({CH2CO}-F[NMeA]N[ξP]HL[Sar]WSW[NMeNle][NMeNle]RC-NH2; thioether N-14), 8.05.
Still for that read-out and setting: with `CCCC[C@H]1C(=O)N(C)[C@@H](CCCC)C(=O)N[C@@H](CCCNC(=N)N)C(=O)N[C@@H](C(=O)NCC(N)=O)CSCC(=O)N[C@@H](Cc2c[nH]c3ccccc23)C(=O)N(C)[C@@H](C)C(=O)N[C@@H](CC(N)=O)C(=O)N2CCC[C@H]2C(=O)N[C@@H](Cc2cnc[nH]2)C(=O)N[C@@H](CC(C)C)C(=O)N(C)CC(=O)N[C@@H](Cc2c[nH]c3ccccc23)C(=O)N[C@@H](CO)C(=O)N[C@@H](Cc2c[nH]c3ccccc23)C(=O)N1C` [Compound No. 25] ({CH2CO}-W[NMeA]NPHL[Sar]WSW[NMeNle][NMeNle]R[dC]G-NH2; thioether N-14) the figure was 7.57; with `CCCC[C@H]1C(=O)N(C)[C@@H](CCCC)C(=O)N[C@@H](CCCNC(=N)N)C(=O)N[C@H](C(=O)NCC(N)=O)CSCC(=O)N[C@@H](Cc2ccc(Br)cc2)C(=O)N(C)[C@@H](C)C(=O)N[C@@H](CC(N)=O)C(=O)N2CCC[C@H]2C(=O)N[C@@H](Cc2cnc[nH]2)C(=O)N[C@@H](CC(C)C)C(=O)N(C)CC(=O)N[C@@H](Cc2c[nH]c3ccccc23)C(=O)N[C@@H](CO)C(=O)N[C@@H](Cc2c[nH]c3ccccc23)C(=O)N1C` [Compound No. 34] ({CH2CO}-[Phe(4-Br)][NMeA]NPHL[Sar]WSW[NMeNle][NMeNle]RCG-NH2; thioether N-14), 8.40; with `CCCC[C@H]1C(=O)N(C)[C@@H](CCCC)C(=O)N[C@@H](CCCNC(=N)N)C(=O)N[C@H](C(=O)NCC(N)=O)CSCC(=O)N[C@@H](Cc2ccc(C)cc2)C(=O)N(C)[C@@H](C)C(=O)N[C@@H](CC(N)=O)C(=O)N2CCC[C@H]2C(=O)N[C@@H](Cc2cnc[nH]2)C(=O)N[C@@H](CC(C)C)C(=O)N(C)CC(=O)N[C@@H](Cc2c[nH]c3ccccc23)C(=O)N[C@@H](CO)C(=O)N[C@@H](Cc2c[nH]c3ccccc23)C(=O)N1C` [Compound No. 36] ({CH2CO}-[Phe(4-Me)][NMeA]NPHL[Sar]WSW[NMeNle][NMeNle]RCG-NH2; thioether N-14), 8.05.
On to `CCCC[C@H]1C(=O)N(C)[C@@H](CCCC)C(=O)N[C@@H](CCCNC(=N)N)C(=O)N[C@H](C(=O)NCC(N)=O)CSCC(=O)N[C@@H](Cc2ccncc2)C(=O)N(C)[C@@H](C)C(=O)N[C@@H](CC(N)=O)C(=O)N2CCC[C@H]2C(=O)N[C@@H](Cc2cnc[nH]2)C(=O)N[C@@H](CC(C)C)C(=O)N(C)CC(=O)N[C@@H](Cc2c[nH]c3ccccc23)C(=O)N[C@@H](CO)C(=O)N[C@@H](Cc2c[nH]c3ccccc23)C(=O)N1C` [Compound No. 39] ({CH2CO}-[4Pal][NMeA]NPHL[Sar]WSW[NMeNle][NMeNle]RCG-NH2; thioether N-14), for which the pIC50 is 7.48.
For `CCCC[C@H]1C(=O)N(C)[C@@H](CCCC)C(=O)N[C@@H](CCCNC(=N)N)C(=O)N[C@H](C(=O)NCC(N)=O)CSCC(=O)N[C@@H](Cc2ccccc2)C(=O)N(C)[C@@H](C)C(=O)N[C@H](CC(N)=O)C(=O)N2CCC[C@H]2C(=O)N[C@@H](Cc2c[nH]cn2)C(=O)N[C@@H](CC(C)C)C(=O)N(C)CC(=O)N[C@@H](Cc2c[nH]c3ccccc23)C(=O)N[C@@H](CO)C(=O)N[C@@H](Cc2c[nH]c3ccccc23)C(=O)N1C` [Compound No. 42] ({CH2CO}-F[NMeA][dN]PHL[Sar]WSW[NMeNle][NMeNle]RCG-NH2; thioether N-14), the pIC50 is under 5.00.
With `CCCC[C@H]1C(=O)N(C)[C@@H](CCCC)C(=O)N[C@@H](CCCNC(=N)N)C(=O)N[C@H](C(=O)NCC(N)=O)CSCC(=O)N[C@@H](Cc2ccccc2)C(=O)N(C)[C@@H](C)C(=O)N[C@@H](CC(N)=O)C(=O)N2CCCCC2C(=O)N[C@@H](Cc2cnc[nH]2)C(=O)N[C@@H](CC(C)C)C(=O)N(C)CC(=O)N[C@@H](Cc2c[nH]c3ccccc23)C(=O)N[C@@H](CO)C(=O)N[C@@H](Cc2c[nH]c3ccccc23)C(=O)N1C` (stereo partly drawn) [Compound No. 44] ({CH2CO}-F[NMeA]N[ξPip]HL[Sar]WSW[NMeNle][NMeNle]RCG-NH2; thioether N-14), the pIC50 was 7.47.
In the case of `CCCC[C@H]1C(=O)N(C)[C@@H](CCCC)C(=O)N[C@@H](CCCNC(=N)N)C(=O)N[C@H](C(=O)NCC(N)=O)CSCC(=O)N[C@@H](Cc2ccccc2)C(=O)N(C)[C@@H](C)C(=O)N[C@@H](CC(N)=O)C(=O)N2C[C@H](O)CC2C(=O)N[C@@H](Cc2cnc[nH]2)C(=O)N[C@@H](CC(C)C)C(=O)N(C)CC(=O)N[C@@H](Cc2c[nH]c3ccccc23)C(=O)N[C@@H](CO)C(=O)N[C@@H](Cc2c[nH]c3ccccc23)C(=O)N1C` (stereo partly drawn) [Compound No. 47] ({CH2CO}-F[NMeA]N[ξPro(4R-OH)]HL[Sar]WSW[NMeNle][NMeNle]RCG-NH2; thioether N-14), the pIC50 was 7.57.
